According to ChEMBL document CHEMBL4196065, “Design and synthesis of new hybrids from 2-cyano-3,12-dioxooleana- 9-dien-28-oic acid and O2-(2,4-dinitrophenyl) diazeniumdiolate for intervention of drug-resistant lung cancer” (Eur J Med Chem, 2018):
The source made the active and inactive calls. No cut-off for these calls is given here.

Columns and labels:
A549/TR [1] = assay: Antiproliferative activity against human A549/TR cells after 72 hrs by MTT assay; assay type: functional, cell-based
[2] = Resistant factor, ratio of IC50 for human A549/TR cells to IC50 for human A549 cells; assay type: functional
A549 = assay: cells; details: Homo sapiens, A549, 72 h
Description: Antiproliferative activity against human A549 cells after 72 hrs by MTT assay

A549/TR [3] = assay: Induction of ROS generation in human A549/TR cells after 24 hrs by DCFH-DA dye-based flow cytometric analysis; assay type: functional, cell-based
A549/TR [4] = assay: Antiproliferative activity against human A549/TR cells at 1 uM after 72 hrs by MTT assay; assay type: functional
[5] = Potency index, ratio of taxol IC50 to compound IC50 for antiproliferative activity against human A549/TR cells; assay type: functional
MRC5 [6] = assay: Antiproliferative activity against human MRC5 cells after 72 hrs by MTT assay; assay type: cell-based; details: MRC5, 72 h
A549/TR [7] = assay: Induction of nitric oxide production in human A549/TR cells at 50 uM after 6 hrs by Griess assay; assay type: functional, cell-based
MRC5 [8] = assay: Induction of nitric oxide production in human MRC5 cells at 50 uM after 6 hrs by Griess assay; assay type: cell-based; details: mrc5, 6 h
A549/TR [9] = assay: Growth inhibition of human A549/TR cells at 1 uM after 72 hrs in presence of GSTpi inhibitor etacrynic acid by MTT assay; assay type: functional
A549/TR [10] = assay: Growth inhibition of human A549/TR cells at 1 uM after 72 hrs in presence of ROS scavenger NAC by MTT assay; assay type: functional
A549/TR [11] = assay: Growth inhibition of human A549/TR cells at 1 uM after 72 hrs in presence of NO scavenger hemoglobin by MTT assay; assay type: functional
A549/TR [12] = assay: Downregulation of Lon expression in human A549/TR cells after 24 hrs by Western blot analysis; assay type: functional, cell-based
A549/TR [13] = assay: Induction of apoptosis in human A549/TR cells after 24 hrs by Annexin-V-FITC/propidium iodide staining-based flow cytometric analysis; assay type: functional, cell-based
A549/TR [14] = assay: Induction of apoptosis in human A549/TR cells assessed as viable cells at 1.2 uM after 24 hrs by Annexin-V-FITC/propidium iodide staining-based flow cytometric analysis (reference value: 95.1%); assay type: functional; details: read-out: Activity
A549/TR [15] = assay: Induction of apoptosis in human A549/TR cells assessed as early apoptotic cells at 1.2 uM after 24 hrs by Annexin-V-FITC/propidium iodide staining-based flow cytometric analysis (reference value: 3.42%); assay type: functional
A549/TR [16] = assay: Induction of apoptosis in human A549/TR cells assessed as late apoptotic cells at 1.2 uM after 24 hrs by Annexin-V-FITC/propidium iodide staining-based flow cytometric analysis (reference value: 1.24%); assay type: functional
A549/TR [17] = assay: Induction of apoptosis in human A549/TR cells assessed as necrotic cells at 1.2 uM after 24 hrs by Annexin-V-FITC/propidium iodide staining-based flow cytometric analysis (reference value: 0.22%); assay type: functional
A549/TR [18] = assay: Induction of apoptosis in human A549/TR cells assessed as viable cells at 2.4 uM after 24 hrs by Annexin-V-FITC/propidium iodide staining-based flow cytometric analysis (reference value: 95.1%); assay type: functional; details: read-out: Activity
A549/TR [19] = assay: Induction of apoptosis in human A549/TR cells assessed as early apoptotic cells at 2.4 uM after 24 hrs by Annexin-V-FITC/propidium iodide staining-based flow cytometric analysis (reference value: 3.42%); assay type: functional
A549/TR [20] = assay: Induction of apoptosis in human A549/TR cells assessed as late apoptotic cells at 2.4 uM after 24 hrs by Annexin-V-FITC/propidium iodide staining-based flow cytometric analysis (reference value: 1.24%); assay type: functional
A549/TR [21] = assay: Induction of apoptosis in human A549/TR cells assessed as necrotic cells at 2.4 uM after 24 hrs by Annexin-V-FITC/propidium iodide staining-based flow cytometric analysis (reference value: 0.22%); assay type: functional
A549/TR [22] = assay: Induction of apoptosis in human A549/TR cells assessed as viable cells at 4.8 uM after 24 hrs by Annexin-V-FITC/propidium iodide staining-based flow cytometric analysis (reference value: 95.1%); assay type: functional; details: read-out: Activity
A549/TR [23] = assay: Induction of apoptosis in human A549/TR cells assessed as early apoptotic cells at 4.8 uM after 24 hrs by Annexin-V-FITC/propidium iodide staining-based flow cytometric analysis (reference value: 3.42%); assay type: functional
A549/TR [24] = assay: Induction of apoptosis in human A549/TR cells assessed as late apoptotic cells at 4.8 uM after 24 hrs by Annexin-V-FITC/propidium iodide staining-based flow cytometric analysis (reference value: 1.24%); assay type: functional
A549/TR [25] = assay: Induction of apoptosis in human A549/TR cells assessed as necrotic cells at 4.8 uM after 24 hrs by Annexin-V-FITC/propidium iodide staining-based flow cytometric analysis (reference value: 0.22%); assay type: functional
A549/TR [26] = assay: Cell cycle arrest in human A549/TR cells assessed as accumulation at G0/G1 phase at 1.2 uM after 24 hrs by propidium iodide/RNase-staining based flow cytometric analysis (reference value: 62.5%); assay type: functional
A549/TR [27] = assay: Cell cycle arrest in human A549/TR cells assessed as accumulation at G2/M phase at 1.2 uM after 24 hrs by propidium iodide/RNase-staining based flow cytometric analysis (reference value: 24.7%); assay type: functional
A549/TR [28] = assay: Cell cycle arrest in human A549/TR cells assessed as accumulation at G0/G1 phase at 2.4 uM after 24 hrs by propidium iodide/RNase-staining based flow cytometric analysis (reference value: 62.5%); assay type: functional
A549/TR [29] = assay: Cell cycle arrest in human A549/TR cells assessed as accumulation at G2/M phase at 2.4 uM after 24 hrs by propidium iodide/RNase-staining based flow cytometric analysis (reference value: 24.7%); assay type: functional
A549/TR [30] = assay: Cell cycle arrest in human A549/TR cells assessed as accumulation at G0/G1 phase at 4.8 uM after 24 hrs by propidium iodide/RNase-staining based flow cytometric analysis (reference value: 62.5%); assay type: functional
A549/TR [31] = assay: Cell cycle arrest in human A549/TR cells assessed as accumulation at G2/M phase at 4.8 uM after 24 hrs by propidium iodide/RNase-staining based flow cytometric analysis (reference value: 24.7%); assay type: functional
A549/TR [32] = assay: Cell cycle arrest in human A549/TR cells after 24 hrs by propidium iodide/RNase-staining based flow cytometric analysis; assay type: functional
A549/TR [33] = assay: Induction of ROS generation in human A549/TR cells at 2.4 to 9.6 uM after 24 hrs by DCFH-DA dye-based flow cytometric analysis; assay type: functional, cell-based
A549/TR [34] = assay: Downregulation of Lon expression in human A549/TR cells at 4.8 uM after 24 hrs by Western blot analysis; assay type: functional, cell-based

IC50 (A549/TR [1])	IC50 (A549)	Compound	Ratio IC50 [2]	Activity (A549/TR [4])	Activity (A549/TR [7])	Activity (MRC5 [8])	viability at 1.2 µM (A549/TR [14])	Activity (A549/TR [15])	Activity (A549/TR [16])	Activity (A549/TR [17])	viability at 2.4 µM (A549/TR [18])	Activity (A549/TR [19])	Activity (A549/TR [20])	Activity (A549/TR [21])	viability at 4.8 µM (A549/TR [22])	Activity (A549/TR [23])	Activity (A549/TR [24])	Activity (A549/TR [25])	Activity (A549/TR [26])	Activity (A549/TR [27])	also measured
3110 nM	7 nM	CC(=O)O[C@H]1C(=O)[C@@]2(C)[C@H]([C@H](OC(=O)c3ccccc3)[C@]3(O)C[C@H](OC(=O)[C@H](O)[C@@H](NC(=O)c4ccccc4)c4ccccc4)C(C)=C1C3(C)C)[C@]1(OC(C)=O)CO[C@@H]1C[C@@H]2O [PACLITAXEL]	445																		
349 nM	1070 nM	CN(CCO)/[N+]([O-])=N/Oc1cc(N2CCN(C(=O)[C@]34CCC(C)(C)C[C@H]3[C@H]3C(=O)C=C5[C@@]6(C)C=C(C#N)C(=O)C(C)(C)[C@@H]6CC[C@@]5(C)[C@]3(C)CC4)CC2)c([N+](=O)[O-])cc1[N+](=O)[O-]	0.3	>50%	Active	Toxic	91.6%	5.11%	3.09%	0.27%	70%	12.8%	14.4%	2.78%	59.7%	15.8%	21.4%	3.15%	61.3%	28.3%	Activity (A549/TR [3]): Dose-dependent effect; Ratio IC50 [5]: 10; IC50 (MRC5 [6]): 1600 nM; growth inhibition (GI) (A549/TR [9]): inactive; growth inhibition (GI) (A549/TR [10]): inactive; growth inhibition (GI) (A549/TR [11]): inactive; Activity (A549/TR [12]): Dose-dependent effect; Activity (A549/TR [13]): Dose-dependent effect; Activity (A549/TR [28]): 47.9%; Activity (A549/TR [29]): 38.9%; Activity (A549/TR [30]): 39.4%; Activity (A549/TR [31]): 48.3%; Activity (A549/TR [32]): Dose-dependent effect
1700 nM	2070 nM	COC(=O)[C@]12CCC(C)(C)C[C@H]1[C@H]1C(=O)C=C3[C@@]4(C)C=C(C#N)C(=O)C(C)(C)[C@@H]4CC[C@@]3(C)[C@]1(C)CC2 [BARDOXOLONE METHYL]	0.8		inactive	Non-Toxic	94.9%	4.06%	0.8%	0.14%	91.8%	6.14%	1.95%	0.13%	83.4%	7.36%	3.03%	0.17%	62.3%	24.9%	Activity (A549/TR [33]): Active; Activity (A549/TR [34]): Active; Activity (A549/TR [28]): 54.7%; Activity (A549/TR [29]): 32.1%; Activity (A549/TR [30]): 47.4%; Activity (A549/TR [31]): 39.4%
820 nM	1440 nM	CN(CCO)/[N+]([O-])=N/Oc1cc(NCCOC(=O)[C@]23CCC(C)(C)C[C@H]2[C@H]2C(=O)C=C4[C@@]5(C)C=C(C#N)C(=O)C(C)(C)[C@@H]5CC[C@@]4(C)[C@]2(C)CC3)c([N+](=O)[O-])cc1[N+](=O)[O-]	0.6	>50%																	
